From patent US20130216498A1, “IMIDAZOPYRIDINE DERIVATIVES AS JAK INHIBITORS” (priority 2009, published 2013) come the findings set out here.

What all share (format): biochemical
The target of experiment [1] is T1, human JAK3 (aa 795-1124) catalytic domain (Homo sapiens, UniProt P52333).
T1 construct: JAK3 (aa 795-1124); GST (N); purchased Carna Biosciences; host or cells: baculovirus expression system
In words: In vitro JAK kinase assay (TR-FRET), JAK3. The note with it: GST-fusion catalytic domain; ATP 0.6 μM; poly (GT)-Biotin 140 nM; 30 minutes at room temperature. On the procedure:
(§1) Compounds were screened for their ability to inhibit JAK1, JAK2 and JAK3 using the assays as indicated below.
(§2) The catalytic domains of human JAK1 (aa 850-1154), JAK2 (aa 826-1132), JAK3 (aa 795-1124) and Tyk2 (aa 871-1187) were expressed as N-terminal GST-fusion proteins using a baculovirus expression system and were purchased from Carna Biosciences. The enzymatic activity was assayed using as substrate a biotinylated peptide, poly (GT)-Biotin (CisBio). The peptide concentration in the reactions was 60 nM for JAK1, 20 nM for JAK2, 140 nM for JAK3 and 50 nM for Tyk2. The degree of phosphorylation was detected by TR-FRET (time-resolved fluorescence energy transfer).
(§3) IC50s of compounds were measured for each kinase in a reaction mixture containing the enzyme, ATP and the peptide in 8 mM MOPS (pH 7.0), 10 mM MgCl2, 0.05% β-mercaptoethanol, 0.45 mg/mL BSA. The ATP concentration in the reactions was 3 μM for JAK1, 0.2 μM for JAK2, 0.6 μM for JAK3 and 1.8 μM for Tyk2. The enzymatic reactions took place for 30 minutes at room temperature. Then, the reactions were stopped with 20 μL of quench detection buffer (50 mM HEPES, 0.5 M KF, EDTA 0.25 M, 0.1% (w/v) BSA, pH 7.5) containing 0.115 μg/mL of anti-phosphoTyr (PT66)-Cryptate (CisBio) and a variable concentration of SA-XL665 (CisBio) to keep the SA-B ratio constant. Incubate for 3 h and read on Victor 2V spectrofluorometer (PerkinElmer) set to read fluorescence resonance energy transfer.

The target of experiment [2] is T2, human JAK2 (aa 826-1132) catalytic domain (Homo sapiens, UniProt O60674).
T2 construct: JAK2 (aa 826-1132); GST (N); purchased Carna Biosciences; host or cells: baculovirus expression system
T2 sequence (O60674 826-1132): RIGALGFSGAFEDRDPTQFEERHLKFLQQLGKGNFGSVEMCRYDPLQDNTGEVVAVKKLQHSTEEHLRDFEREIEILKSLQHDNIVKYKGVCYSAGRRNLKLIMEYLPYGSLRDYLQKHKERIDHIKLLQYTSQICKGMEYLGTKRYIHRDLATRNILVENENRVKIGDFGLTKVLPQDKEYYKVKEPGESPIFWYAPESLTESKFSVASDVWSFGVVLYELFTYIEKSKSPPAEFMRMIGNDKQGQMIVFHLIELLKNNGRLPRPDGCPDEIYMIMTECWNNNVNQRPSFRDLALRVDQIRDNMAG
In words: In vitro JAK kinase assay (TR-FRET), JAK2. As to conditions: GST-fusion catalytic domain; ATP 0.2 μM; poly (GT)-Biotin 20 nM; 30 minutes at room temperature. As for the experimental part: as §1, §2, §3

Experiment [3] has as its target T3, human JAK1 (aa 850-1154) catalytic domain (Homo sapiens, UniProt P23458).
T3 construct: human JAK1 (aa 850-1154); GST (N); purchased Carna Biosciences; host or cells: baculovirus expression system
In words: In vitro JAK kinase assay (TR-FRET), JAK1. The note with it: GST-fusion catalytic domain; ATP 3 μM; poly (GT)-Biotin 60 nM; 30 minutes at room temperature. On the procedure: as §1, §2, §3

The structures appear in SMILES notation.

T1 sequence (P52333 795-1124): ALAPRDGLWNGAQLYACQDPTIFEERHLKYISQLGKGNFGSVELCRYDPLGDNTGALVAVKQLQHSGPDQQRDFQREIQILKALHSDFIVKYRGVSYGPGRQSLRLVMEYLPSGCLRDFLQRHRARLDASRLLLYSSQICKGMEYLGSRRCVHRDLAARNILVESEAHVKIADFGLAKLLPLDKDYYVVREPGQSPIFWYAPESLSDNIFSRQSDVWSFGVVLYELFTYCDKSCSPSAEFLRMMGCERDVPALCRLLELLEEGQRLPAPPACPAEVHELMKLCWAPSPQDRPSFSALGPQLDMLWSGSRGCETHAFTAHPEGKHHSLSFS
T3 sequence (P23458 850-1154): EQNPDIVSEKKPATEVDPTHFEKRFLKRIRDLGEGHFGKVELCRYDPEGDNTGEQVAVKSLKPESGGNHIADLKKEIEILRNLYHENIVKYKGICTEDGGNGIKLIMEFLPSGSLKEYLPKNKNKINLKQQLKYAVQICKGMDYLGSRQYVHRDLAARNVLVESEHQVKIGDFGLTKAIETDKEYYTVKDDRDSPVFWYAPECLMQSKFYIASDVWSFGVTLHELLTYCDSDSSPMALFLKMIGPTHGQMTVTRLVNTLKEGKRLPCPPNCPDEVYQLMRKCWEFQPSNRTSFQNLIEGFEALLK

Consider `CCC[C@H](Nc1nc(-c2cnc3ccc(F)cn23)ncc1C(N)=O)c1ccc(F)cc1` [Example 151, (S)-2-(6-Fluoroimidazo[1,2-a]pyridin-3-yl)-4-(1-(4-fluorophenyl)butylamino) pyrimidine-5-carboxamide], for which the IC50 was < 100 nM in experiment [1], < 100 nM in experiment [2] and 100 to 1000 nM in experiment [3].

On to `CC(C)(C)CNc1nc(-c2cnc3ccc(C#N)cn23)ncc1N1CCNCC1` [Example 10, 3-{4-[(2,2-Dimethylpropyl)amino]-5-piperazin-1-ylpyrimidin-2-yl}imidazo[1,2-a]pyridine-6-carbonitrile], for which the half-inhibitory concentration (IC50) in experiment [1] was 100 to 1000 nM; in experiment [2] it was < 100 nM; in experiment [3] it was > 1000 nM.

Consider `N#CCC(=O)N1CCC[C@@H](Nc2ccnc(-c3cnc4ccc(F)cn34)n2)C1` [Example 64, 3-((3R)-3-{[2-(6-Fluoroimidazo[1,2-a]pyridin-3-yl)pyrimidin-4-yl]amino}piperidin-1-yl)-3-oxopropanenitrile], for which the IC50 in experiment [1], in experiment [2] and in experiment [3] was < 100 nM each time.

With `N#CC[C@H]1CC[C@H](Nc2nc(-c3cnc4ccc(F)cn34)ncc2C(N)=O)CC1` [Example 153, 4-((1r,4r)-4-(Cyanomethyl)cyclohexylamino)-2-(6-fluoroimidazo[1,2-a]pyridin-3-yl)pyrimidine-5-carboxamide], the IC50 in experiment [1] is < 100 nM; in experiment [2] it was < 100 nM; in experiment [3], > 1000 nM.

With `N#Cc1ccc2ncc(-c3nccc(NC4CCCCC4)n3)n2c1` [Example 21, 3-[4-(Cyclohexylamino)pyrimidin-2-yl]imidazo[1,2-a]pyridine-6-carbonitrile], the IC50 in experiment [1] was < 100 nM; in experiment [2], < 100 nM; in experiment [3] it was 100 to 1000 nM.

Consider `N#Cc1ccc(N2CCC[C@@H](Nc3ccnc(-c4cnc5ccc(C#N)cn45)n3)C2)nc1` [Example 57, 3-(4-{[(3R)-1-(5-Cyanopyridin-2-yl)piperidin-3-yl]amino}pyrimidin-2-yl)imidazo[1,2-a]pyridine-6-carbonitrile], for which the figures for the half-maximal inhibitory concentration (IC50) in experiment [1], in experiment [2] and in experiment [3] were < 100 nM, < 100 nM and > 1000 nM, respectively.

`O=C(C1CC1(F)F)N1CCC[C@@H](Nc2ccnc(-c3cnc4ccc(F)cn34)n2)C1` (stereo partly drawn) [Example 102, (2,2-Difluorocyclopropyl)((R)-3-(2-(6-fluoroimidazo[1,2-a]pyridin-3-yl)pyrimidin-4-ylamino)piperidin-1-yl)methanone]: the IC50 in experiment [1] is 100 to 1000 nM; in experiment [2], < 100 nM; in experiment [3], > 1000 nM.

Consider `N#CCC(=O)N1CCC[C@@H](Nc2cc(C(=O)O)nc(-c3cnc4ccc(F)cn34)n2)C1` [Example 181, (R)-6-(1-(2-Cyanoacetyl)piperidin-3-ylamino)-2-(6-fluoroimidazo[1,2-a]pyridin-3-yl)pyrimidine-4-carboxylic acid], for which the concentration for half-maximal inhibition (IC50) in experiment [1] was 100 to 1000 nM; in experiment [2] it was < 100 nM; in experiment [3], 100 to 1000 nM.

`Cc1cnc(-c2cnc3ccc(F)cn23)nc1N[C@@H]1CCN(C(=O)CC#N)C1` [Example 134, (R)-3-(3-(2-(6-Fluoroimidazo[1,2-a]pyridin-3-yl)-5-methylpyrimidin-4-ylamino)pyrrolidin-1-yl)-3-oxopropanenitrile]: the figures for the IC50 in experiment [1], in experiment [2] and in experiment [3] were 100 to 1000 nM, < 100 nM and 100 to 1000 nM, respectively.

Turning to `C[C@H](Nc1cncc(-c2cnc3ccc(C4CC4)cn23)n1)c1ccccc1` [Example 38, 6-(6-Cyclopropylimidazo[1,2-a]pyridin-3-yl)-N-[(1S)-1-phenylethyl]pyrazin-2-amine], the IC50 in experiment [1] is 100 to 1000 nM; in experiment [2], < 100 nM; in experiment [3] it was > 1000 nM.

On to `C[C@H](Nc1cncc(-c2cnc3ccc(-c4ccccc4)cn23)n1)c1ccccc1` [Example 42, N-[(1S)-1-Phenylethyl]-6-(6-phenylimidazo[1,2-a]pyridin-3-yl)pyrazin-2-amine], for which the IC50 in experiment [1] is > 1000 nM; in experiment [2] it was 100 to 1000 nM; in experiment [3] it was > 1000 nM.
